Laboratory results as given in US20250170097A1, “CATHEPSIN INHIBITORS AND USE THEREOF IN A METHOD FOR DETECTING AND TREATING RESISTANCE TO IMMUNOTHERAPY” (YISSUM RESEARCH DEVELOPMENT COMPANY OF THE HEBREW …, priority 2022, published 2025).

Key:
[1] = tested on: endogenous cathepsin activity; assay: Endogenous inhibition of cathepsin activity, ACE2-ab-MGB compared to MGB (FIG. 10); format: cell-based; details: FIG. 10A-10B
Method: 2.5*10^5 cells per well (A549, U87 or HepG2), were seeded in 6 well plates one day before incubation with indicated concentrations of inhibitors (GB111-NH2 or MGB, respectively) for 1 hour at 37° C. Residual cathepsin activity was labeled by the addition of 2 μM of GB123 for 2 hours at 37° C. Sample buffer was added and samples were boiled at 100° C. for 10 min. Equal protein amounts of each sample were resolved by a 12.5% SDS PAGE. a) Gels were scanned for fluorescence by a Typhoon scanner. b) The gel bands were quantified using ImageJ software and IC50 curves were generated from triplicate experiments using Prism-GraphPad software.

[2] = tested on: A549, HepG2, U87, and Hacat cells; assay: Cell viability assay (methylene blue, 72 hours); format: cell-based
Method: The cells were incubated with compounds at indicated concentrations for 72 hours at 37° C. and then fixed by 2.5% glutaraldehyde for 1 hour at room temperature and stained with methylene blue. Growth was compared to vehicle-treated cells designated as 100%.

[3] = biological target: Recombinant cathepsin L (rCatL) (Homo sapiens, UniProt P07711); assay: Competitive inhibition of recombinant cathepsin L, residual activity labeled with GB123, SDS PAGE; format: biochemical; details: fluorescent SDS-PAGE, FIG. 8C
Method: (§1) Recombinant cathepsin B and L (rCatB and rCatL, respectively) were incubated for 45 minutes at 37° C. with 1 μl of increasing concentrations of cathepsin inhibitors (GB111-NH2 or MGB, respectively), residual cathepsin activity was labeled by addition of 1 μM of GB123 fluorescent activity-based probe for 45 minutes at 37° C., sample buffer was added for 2 min and the sample was boiled at 100° C. for 2 minutes. Equal amount of each sample was separated by a 12.5% SDS PAGE, this experiment was repeated 3 times. The gel was scanned for fluorescence by a Typhoon scanner. The bands were quantified by ImageJ software and then IC50 curves were generated from triplicate experiment by Prism-GraphPad software.

[4] = biological target: Recombinant cathepsin B (rCatB) (Homo sapiens, UniProt P07858); assay: Competitive inhibition of recombinant cathepsin B, residual activity labeled with GB123, SDS PAGE; format: biochemical; details: fluorescent SDS-PAGE, FIG. 8C
Method: as §1

[5] = tested on: endogenous cathepsin activity (cathepsin L/B) in lung cancer A549 cells; assay: Cathepsin inhibition in intact A549 cells, residual activity labeled with GB123; format: cell-based; details: for IC50: 1 hour at 37° C., FIG. 9B
Method: The ability of MGB to penetrate cells and inhibit endogenous cathepsin activity was tested in lung cancer A549 cells. This model (lung cells) was chosen since corona virus is known to infect the respiratory system. Intact cells were treated with inhibitors and the residual activity was determined by GB123. Inhibition was detected on SDS-PAGE Potent inhibitors reduce the residual activity and as a result, a reduction in fluorescently labeled cathepsins is seen (FIG. 9A). The cathepsin activity was quantification and IC50 curves were plotted.

B16-F10 tumors = assay: Resistant B16-F10 melanoma tumor-bearing mice; format: in vivo; details: combination of GB111-NH2 (30 mg/kg) and anti PD-1 (100 μg/dose), every 4 days from day 5
Method: A sensitive IT treatment model, D4M tumors and, a more resistant model, IT B16-F10 tumor Cells were injected subcutaneously (SC) to the back of the mice and their growth was measured continuously by caliper. Anti PD-1 was administered intra peritoneally (IP) twice, a few days after the tumor could be palpated, and on indicated days and doses as described in the methods, changes in tumor volume were measured during the experiment (FIG. 4A).
To determine the cathepsin activity in both models, one day prior to sacrifice, GB123 (a fluorescent cathepsin activity-based probe) was administered IV, and tumors were harvested for further biochemical examination. Tumor tissue was subjected to fluorescence-activated cell sorting (FACS) analysis to determine the percentage of tumor associated macrophages (TAMs) that express high cathepsin activity.
The effect of the inhibition of cathepsin activity on the resistance to IT was examined using the resistant B16-F10 tumor-bearing mice with IT (anti-PD-1), GB111-NH2 (cathepsin inhibitor), or their combinations. The B16-F10 tumor-bearing mice were treated every 4 days, starting on day 5 after cell inoculation with anti PD-1 (100 μg/dose), GB111-NH2 (30 mg/kg) or their combinations; IT was given a day before GB111-NH2 (a group of GB111-NH2 first and IT a day later was included). […] In addition, survival plots were generated (FIG. 6B).

[6] = tested on: NF-κB reporter in OCI-Ly19 cells; assay: NF-κB signaling assay (luciferase reporter); format: cell-based; details: 5 μM, 0.5 μg LPS, 24 h induction; potent as SC-514
Method: Cells were transfected by electroporation with NF-κB reporter plasmid. After selection, the cells were harvested, and the luciferase activities were measured and normalized. 5 μM GB111-NH2 inhibited activity of NF-κB reporter in OCI-Ly 19 cells induced by 0.5 μg LPS (24 h induction). 10 μM SC-514, a specific suppressor of NF-κB activity, was used as positive control.

[7] = tested on: CD74 in OCI-Ly3 and OCI-Ly19; assay: CD74 expression by Western blot and FACS; format: cell-based
From the text: The CD74 expression was examined by Western blot (WB) and FACS in OCI-Ly3 and OCI-Ly19 treated with GB111-NH2, LPS or LPS pretreated with GB111-NH2.

cathepsins B, L and S = assay: Cathepsin activity in lysates of patients' cells and hematological malignancy cell lines, GB123 labeling; format: cell-based, human
Method: Cell lysates from hematological malignancies patients were pretreated with vehicle, or a cathepsin inhibitor GB111-NH2 for 0.5 hour, then labeled by addition of 1 μmol/L GB123 probe for 1 hour. Equal amounts of protein were separated and visualized by scanning of the gel with a Typhoon flatbed laser scanner. Each lane was taken from a different patient. MZL-Marginal zone lymphoma, CLL-chronic lymphocytic leukemia, DLBCL-Diffuse large B-cell lymphoma.
Crude detergent lysates from cells that were pretreated with either cathepsin inhibitor GB111-NH2 or with control DMSO; vehicle for 20 minutes and then labeled by addition of 1 μmol/L GB123 probe for 1 hour. Equal amounts of protein (see Coomassie) were separated and visualized by scanning of the gel with a Typhoon flatbed laser scanner.
To verify activity dependent labeling, indicated samples were pre-incubated with GB111-NH2, a potent cathepsin inhibitor, prior to GB123 labeling. After incubation with GB123, a fluorescent scan of SDS-PAGE was done. Cathepsin activity was detected in lysates of cells from human Chronic lymphocytic leukemia (CLL) and Diffuse large B-cell lymphoma (DLBCL) patients as well as healthy population (FIG. 13).

OCI-Ly19 DLBCL cells = assay: Lymphoma cell death assay (caspase-3 activation, annexin V staining); format: cell-based
Method: OCI-Ly19 DLBCL cells were treated with GB111-NH2 for 1 hour and the cells were evaluated for caspase-3 activation and annexin V staining as indications for apoptosis.
Caspase-3 activation was assessed through the evaluation of caspase-3 enzyme activity (100 ng of protein) with the substrate Ac-DEVD-pNA (N-acetyl-Asp-Glu-Val-Asp-p-nitroaniline) in a colorimetric assay 24 hours post treatment.

[8] = tested on: blood cells isolated from peripheral blood and bone marrow of CLL patients; assay: Annexin V staining and cathepsin S activity in blood cells of CLL patients; format: cell-based, human
Method: FIGS. 14A-14D are bar graphs and images presenting the inhibition of cathepsins induces apoptosis in OCI-Ly19 cells. (14A) Caspase-3 activation; (14B) FACS analysis of stained cells with anti-Annexin V; (14C) Mononuclear cells from CLL patients were isolated by FICOL, treated with 5 uM GB111-NH2 for 1 hour and stained with anti-Annexin V; and (14D) labeled crude detergent lysates.
The ability of GB111-NH2 to promote lymphoma cell death was examined. […] Cathepsin S activity in these cells was initially high and was reduced to 40% (+10%).

Recombinant cathepsin L (rCatL), sequence (P07711 114-333, species assumed): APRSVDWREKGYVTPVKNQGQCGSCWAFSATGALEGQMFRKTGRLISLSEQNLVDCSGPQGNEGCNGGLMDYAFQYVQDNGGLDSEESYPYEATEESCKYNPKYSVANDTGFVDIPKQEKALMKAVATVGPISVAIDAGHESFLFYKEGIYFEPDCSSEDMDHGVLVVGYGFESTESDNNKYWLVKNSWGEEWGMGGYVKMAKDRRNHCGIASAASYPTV

Row | IC50 [1] | inhibition of rCatL [3] | inhibition of rCatB [4] | IC50 [5] | Compound | cell viability ([2]; even at a concentration of 5 μM) | Tumor volume (B16-F10 tumors) | LPS-induced NF-κB transcriptional activity [6] | cell viability ([2]; even at low concentrations as 1 μM) | surface expression of CD74 (FACS) [7] | cathepsin activity in OCI-Ly19 cells (cathepsins B, L and S; NF-κB reporter cells treated with LPS) | cathepsins activity (cathepsins B, L and S; patients' cells and lymphoma cell lines, pretreatment before GB123 labeling) | increase in caspase-3 activity (OCI-Ly19 DLBCL cells; OCI-Ly19, 24 hours post treatment) | increase in Annexin V staining (OCI-Ly19 DLBCL cells; OCI-Ly19, treated for 1 hour) | Annexin V staining ([8]; 5 uM for 1 hour, p value 0.016) | Cathepsin S activity, reduced to ([8]; CLL patients' cells) | potency relative to MGB [5]
1 | 1700 ± 600 nM | inhibits | inhibits | 1900 nM | Cc1cccc(C)c1C(=O)OCC(=O)[C@H](CCCCN)NC(=O)[C@H](Cc1ccccc1)NC(=O)[C@H](Cc1ccccc1)NC(=O)CCCCCN1C(=O)C=CC1=O [MGB] | safe to cells |  |  |  |  |  |  |  |  |  |  | 
2 |  |  |  | 6 nM | Cc1cccc(C)c1C(=O)OCC(=O)[C@H](CCCCN)NC(=O)[C@H](Cc1ccccc1)NC(=O)OCc1ccccc1 [GB111-NH2] |  | significantly smaller tumors | suppressed LPS-induced NF-κB transcriptional activity | reduced cell viability significantly | reduces the surface expression of CD74 | blocked cathepsin activity | abolished cathepsins activity | 4.5 fold | 2.5 fold | increased Annexin V staining | 40% | over 200 fold
